Reference: patent publication US20130122024A1, “NEW BINDER-DRUG CONJUGATES (ADCS) AND USE THEREOF” (Bayer Intellectual Property GmbH, priority 2011, published 2013)
Where “and” joins values, the source holds several entries; their conditions need not be identical. Equal entries are not always repeated. Entries after “also recorded” stand apart in the source; their conditions may differ. Structures can show the parent of a compound that is named as a salt. Square brackets hold non-standard residues; d marks the D form. Peptide text beside a SMILES is read from it. * marks the point of attachment. X2 = CC(C)[C@@H](C(=O)*)N(C)CCCCCCN1C(=O)CC(SC[C@H](N)C(=O)O)C1=O; X3 = CC(C)[C@@H](C(=O)*)N(C)CCOCCOCCOCCC(=O)NCCCC[C@H](N)C(=O)O; X4 = C[C@@H](O)[C@@H](C(=O)*)N(C)CCCCCC(=O)NCCCC[C@H](N)C(=O)O; X1 = CC(C)[C@@H](C(=O)*)N(C)CCCCCC(=O)NCCCC[C@H](N)C(=O)O; Dolaproine = CO[C@@H]([C@@H]1CCCN1)[C@@H](C)C(=O)O; Dil = CC[C@H](C)[C@H](NC)[C@@H](CC(=O)O)OC; Oxazinan2yl(1,2) = C1CCN(*)OC1; NMeV = CN[C@H](C(=O)O)C(C)C

Columns and labels:
tubulin = assay: Fluorescence-based microtubule (tubulin) polymerization assay; assay type: biochemical
Description: Tubulin polymerization was investigated using the “Fluorescence-based Microtubule Polymerisation Assay Kit” from Cytoskeleton (Denver, Colo., USA; order number: BK011). With this assay, GTP is added to unpolymerized tubulin, allowing polymerization to take place spontaneously. The assay is based on the binding of the fluorophore 4′,6-di-amidino-2-phenylindole (DAPI) to tubulin. Free and bound DAPI can be differentiated on the basis of different emission spectra.
[…] In addition to the buffer control, paclitaxel, with a polymerization-increasing effect, and vinblastin, with a polymerization inhibiting effect, were run additionally as assay controls. Measurement was carried out using 96-well plates with a half base area. The kinetics of the tubulin polymerization were monitored in a Fluorimeter at 37° C. for 1 hour. The excitation wavelength was 355 nm, and emission was monitored at 460 nm. For the region of linear increase within the first 10 minutes, a calculation was made of the change in fluorescence per minute (ΔF/min), which represents the polymerization rate of the microtubuli. The potency of the test substances was quantified on the basis of their respective reduction of the polymerization rate.
The reduction in the tubulin polymerization rate occurs in dependence on the concentration of the test substance added.

Caco-2 cells = assay: Caco-2 flux assay for cell permeability; assay type: in vitro ADME; conditions: 2 hours, B to A
Description: The cell permeability of a substance can be investigated by means of in vitro testing in a flux assay using Caco-2 cells [M. D. Troutman and D. R. Thakker, Pharm. Res. 20 (8), 1210-1224 (2003)]. For this purpose, the cells were cultured for 15-16 days on 24-well filter plates. For the determination of permeation, the respective working example was applied in a HEPES buffer to the cells either apically (A) or basally (B) and incubated for 2 hours. After 0 hours and after 2 hours, samples were taken from the cis and trans compartments. The samples were separated by HPLC (Agilent 1200, Böblingen, Germany) using reverse phase columns. The HPLC system was coupled via a Turbo Ion Spray Interface to a Triple Quadropol mass spectrometer API 4000 (Applied Biosystems Applera, Darmstadt, Germany). The permeability was evaluated on the basis of a Papp value, which was calculated using the formula published by Schwab et al. [D. Schwab et al., J. Med. Chem. 46, 1716-1725 (2003)].

[1] = concentration of toxophore 10 μM
[2] = concentration of toxophore 1 μM

CC[C@H](C)[C@@H]([C@@H](CC(=O)N1CCC[C@H]1[C@H](OC)[C@@H](C)C(=O)N[C@@H](Cc1c[nH]c2ccccc12)C(=O)N1CCCCO1)OC)N(C)C(=O)[C@@H](NC(=O)[C@H](C(C)C)N(C)CCCCCCN1C(=O)CC(SC[C@H](N)C(=O)O)C1=O)C(C)C (stereo partly drawn) [Example 67, N-[6-(3-{[(2R)-2-Amino-2-carboxyethyl]sulphanyl}-2,5-dioxopyrrolidin-1-yl)hexyl]-N-methyl-L-valyl-N-[(3R,4S,5S)-1-{(2S)-2-[(1R,2R)-3-{[(2S)-3-(1H-indol-3-yl)-1-(1,2-oxazinan-2-yl)-1-oxopropan-2-yl]amino}-1-methoxy-2-methyl-3-oxopropyl]pyrrolidin-1-yl}-3-methoxy-5-methyl-1-oxoheptan-4-yl]-N-methyl-L-valinamide] (X2-V[Dil][Dolaproine]W-{Oxazinan2yl(1,2)})
Tubulin polymerization in the presence of toxophore in [%]. Tubulin polymerization rate at 1 μM MMAF set at 100% (tubulin; [1]): 35%

CC[C@H](C)[C@@H]([C@@H](CC(=O)N1CCC[C@H]1[C@H](OC)[C@@H](C)C(=O)N[C@@H](Cc1c[nH]c2ccccc12)C(N)=O)OC)N(C)C(=O)[C@@H](NC(=O)[C@H](C(C)C)N(C)CCCC(=O)NNC(=O)CCCCCN1C(=O)CC(SC[C@H](N)C(=O)O)C1=O)C(C)C (stereo partly drawn) [Example 62, N-(4-{2-[6-(3-{[(2R)-2-Amino-2-carboxyethyl]sulphanyl}-2,5-dioxopyrrolidin-1-yl)hexanoyl]hydrazino}-4-oxobutyl)-N-methyl-L-valyl-N-[(3R,4S,5S)-1-{(2S)-2-[(1R,2R)-3-{[(2S)-1-amino-3-(1H-indol-3-yl)-1-oxopropan-2-yl]amino}-1-methoxy-2-methyl-3-oxopropyl]pyrrolidin-1-yl}-3-methoxy-5-methyl-1-oxoheptan-4-yl]-N-methyl-L-valinamide]
Tubulin polymerization in the presence of toxophore in [%]. Tubulin polymerization rate at 1 μM MMAF set at 100% (tubulin; [2]): 88% | Tubulin polymerization in the presence of toxophore in [%]. Tubulin polymerization rate at 1 μM MMAF set at 100% (tubulin; [1]): 25% | Papp (B-A) (Caco-2 cells): 0.2 ×10⁻⁶ cm/s

CC[C@H](C)[C@@H]([C@@H](CC(=O)N1CCC[C@H]1[C@H](OC)[C@@H](C)C(=O)N[C@@H](Cc1c[nH]c2ccccc12)C(=O)NCc1ccccc1)OC)N(C)C(=O)[C@@H](NC(=O)[C@H](C(C)C)N(C)CCCC(=O)NNC(=O)CCCCCN1C(=O)CC(SC[C@H](N)C(=O)O)C1=O)C(C)C (stereo partly drawn) [Example 68, N-(4-{2-[6-(3-{[(2R)-2-Amino-2-carboxyethyl]sulphanyl}-2,5-dioxopyrrolidin-1-yl)hexanoyl]hydrazino}-4-oxobutyl)-N-methyl-L-valyl-N-[(3R,4S,5S)-1-{(2S)-2-[(1R,2R)-3-{[(2S)-1-(benzylamino)-3-(1H-indol-3-yl)-1-oxopropan-2-yl]amino}-1-methoxy-2-methyl-3-oxopropyl]pyrrolidin-1-yl}-3-methoxy-5-methyl-1-oxoheptan-4-yl]-N-methyl-L-valinamide]
Tubulin polymerization in the presence of toxophore in [%]. Tubulin polymerization rate at 1 μM MMAF set at 100% (tubulin; [1]): 45% | Papp (B-A) (Caco-2 cells): 0.7 ×10⁻⁶ cm/s

CC[C@H](C)[C@@H]([C@@H](CC(=O)N1CCC[C@H]1[C@H](OC)[C@@H](C)C(=O)N[C@@H](Cc1c[nH]c2ccccc12)C(N)=O)OC)N(C)C(=O)[C@@H](NC(=O)[C@H](C(C)C)N(C)CCCCCCN1C(=O)CC(SC[C@H](N)C(=O)O)C1=O)C(C)C (stereo partly drawn) [Example 65, N-[6-(3-{[(2R)-2-Amino-2-carboxyethyl]sulphanyl}-2,5-dioxopyrrolidin-1-yl)hexyl]-N-methyl-L-valyl-N-[(3R,4S,5S)-1-{(2S)-2-[(1R,2R)-3-{[(2S)-1-amino-3-(1H-indol-3-yl)-1-oxopropan-2-yl]amino}-1-methoxy-2-methyl-3-oxopropyl]pyrrolidin-1-yl}-3-methoxy-5-methyl-1-oxoheptan-4-yl]-N-methyl-L-valinamide] (X2-V[Dil][Dolaproine]W-NH2)
Tubulin polymerization in the presence of toxophore in [%]. Tubulin polymerization rate at 1 μM MMAF set at 100% (tubulin; [1]): 64% | Papp (B-A) (Caco-2 cells): 0.5 ×10⁻⁶ cm/s

CC[C@H](C)[C@@H]([C@@H](CC(=O)N1CCC[C@H]1[C@H](OC)[C@@H](C)C(=O)N[C@@H](Cc1ccccc1)C(=O)NCc1ccccc1)OC)N(C)C(=O)[C@@H](NC(=O)[C@H](C(C)C)N(C)CCCC(=O)NNC(=O)CCCCCN1C(=O)CC(SC[C@H](N)C(=O)O)C1=O)C(C)C (stereo partly drawn) [Example 69, N-(4-{2-[6-(3-{[(2R)-2-Amino-2-carboxyethyl]sulphanyl}-2,5-dioxopyrrolidin-1-yl)hexanoyl]hydrazino}-4-oxobutyl)-N-methyl-L-valyl-N-[(3R,4S,5S)-1-{(2S)-2-[(1R,2R)-3-{[(2S)-1-(benzylamino)-1-oxo-3-phenylpropan-2-yl]amino}-1-methoxy-2-methyl-3-oxopropyl]pyrrolidin-1-yl}-3-methoxy-5-methyl-1-oxoheptan-4-yl]-N-methyl-L-valinamide]
Tubulin polymerization in the presence of toxophore in [%]. Tubulin polymerization rate at 1 μM MMAF set at 100% (tubulin; [2]): 110%

CC[C@H](C)[C@@H]([C@@H](CC(=O)N1CCC[C@H]1[C@H](OC)[C@@H](C)C(=O)N[C@@H](Cc1ccccc1)C(=O)O)OC)N(C)C(=O)[C@@H](NC(=O)[C@@H](NC)C(C)C)C(C)C [MMAF, Monomethylauristatin F, reference compound] (H-[NMeV]V[Dil][Dolaproine]F-OH)
reduction in the polymerization rate (tubulin; 1 μM): 40-45% | effect on tubulin polymerization (tubulin; 100 μM): complete cessation of polymerization; also recorded: inhibited completely | Tubulin polymerization in the presence of toxophore in [%]. Tubulin polymerization rate at 1 μM MMAF set at 100% (tubulin; [2]): 100% | Tubulin polymerization in the presence of toxophore in [%]. Tubulin polymerization rate at 1 μM MMAF set at 100% (tubulin; [1]): 34% | Tubulin polymerization in the presence of toxophore in [%]. Tubulin polymerization rate at 1 μM MMAF set at 100% (tubulin; concentration of toxophore 100 μM): 0% | Papp (B-A) (Caco-2 cells): 7.3 ×10⁻⁶ cm/s

CC[C@H](C)[C@@H]([C@@H](CC(=O)N1CCC[C@H]1[C@H](OC)[C@@H](C)C(=O)N[C@@H](Cc1ccc(O)cc1)C(=O)O)OC)N(C)C(=O)[C@@H](NC(=O)[C@H](C(C)C)N(C)CCCCCC(=O)NCCCC[C@H](N)C(=O)O)C(C)C [Example 118, N-(6-{[(5S)-5-Amino-5-carboxypentyl]amino}-6-oxohexyl)-N-methyl-L-valyl-N-[(3R,4S,5S)-1-{(2S)-2-[(1R,2R)-3-{[(1S)-1-carboxy-2-(4-hydroxyphenyl)ethyl]amino}-1-methoxy-2-methyl-3-oxopropyl]pyrrolidin-1-yl}-3-methoxy-5-methyl-1-oxoheptan-4-yl]-N-methyl-L-valinamide trifluoroacetate] (X1-V[Dil][Dolaproine]Y-OH)
Tubulin polymerization in the presence of toxophore in [%]. Tubulin polymerization rate at 1 μM MMAF set at 100% (tubulin; [2]): 90% | Tubulin polymerization in the presence of toxophore in [%]. Tubulin polymerization rate at 1 μM MMAF set at 100% (tubulin; [1]): 17%

CC[C@H](C)[C@@H]([C@@H](CC(=O)N1CCC[C@H]1[C@H](OC)[C@@H](C)C(=O)N[C@@H](Cc1c[nH]c2ccccc12)C(=O)N1CCCCO1)OC)N(C)C(=O)[C@@H](NC(=O)[C@H](C(C)C)N(C)CCOCCOCCOCCC(=O)NCCCC[C@H](N)C(=O)O)C(C)C [Example 107, N-[(18S)-18-Amino-18-carboxy-12-oxo-3,6,9-trioxa-13-azaoctadec-1-yl]-N-methyl-L-valyl-N-[(3R,4S,5S)-1-{(2S)-2-[(1R,2R)-3-{[(2S)-3-(1H-indol-3-yl)-1-(1,2-oxazinan-2-yl)-1-oxopropan-2-yl]amino}-1-methoxy-2-methyl-3-oxopropyl]pyrrolidin-1-yl}-3-methoxy-5-methyl-1-oxoheptan-4-yl]-N-methyl-L-valinamide trifluoroacetate] (X3-V[Dil][Dolaproine]W-{Oxazinan2yl(1,2)})
Tubulin polymerization in the presence of toxophore in [%]. Tubulin polymerization rate at 1 μM MMAF set at 100% (tubulin; concentration of toxophore 1 μM, trifluoroacetate): 60% and 78%

CC[C@H](C)[C@@H]([C@@H](CC(=O)N1CCC[C@H]1[C@H](OC)[C@@H](C)C(=O)N[C@@H](Cc1c[nH]c2ccccc12)C(=O)N1CCCCO1)OC)N(C)C(=O)[C@@H](NC(=O)[C@H]([C@@H](C)O)N(C)CCCCCC(=O)NCCCC[C@H](N)C(=O)O)C(C)C [Example 116, N-(6-{[(5S)-5-Amino-5-carboxypentyl]amino}-6-oxohexyl)-N-methyl-L-threonyl-N-[(3R,4S,5S)-1-{(2S)-2-[(1R,2R)-3-{[(2S)-3-(1H-indol-3-yl)-1-(1,2-oxazinan-2-yl)-1-oxopropan-2-yl]amino}-1-methoxy-2-methyl-3-oxopropyl]pyrrolidin-1-yl}-3-methoxy-5-methyl-1-oxoheptan-4-yl]-N-methyl-L-valinamide trifluoroacetate] (X4-V[Dil][Dolaproine]W-{Oxazinan2yl(1,2)})
Papp (B-A) (Caco-2 cells): 0.18 ×10⁻⁶ cm/s
